The results in this text go back to ChEMBL document CHEMBL3507680, “University of Dundee, Gates Library screen for HepG2 cell viability”.

The data set is described as follows: Human HepG2 cell viability assay in 384 well format. The settings on record: HepG2 cells, read-out: Inhibition. Also noted: dose 125 nL, time 70.5 hour; cytotoxicity at 70.5 h: concentration not given beside the values. The format is toxicity, cell-based.
Regarding `CC(C)Oc1cccc(C(=O)C2CCCN(S(=O)(=O)C(C)C)C2)c1` (centres undefined), the cytotoxicity at 70.5 h was -7.26%.

For the compound `CCc1nc(C)c(C2CC(=O)Nc3c2c(-c2cccnc2)nn3C)[nH]1` (centres undefined), the cytotoxicity at 70.5 h is -5.87%.

Take `O=C(c1ccccc1)N1C[C@@H]2CC[C@H](C1)N(C(=O)CN1CCOCC1)C2`: the cytotoxicity at 70.5 h was determined as 3.79%.

`N[C@@H]1CC[C@@H]1NC(=O)c1ccccc1OC(F)(F)C(F)F`: the cytotoxicity at 70.5 h was found to be 3.75%.

`Cc1nnc(CN2C[C@H](NC(=O)CC3CCCC3)[C@@H](C3CC3)C2)s1`: the cytotoxicity at 70.5 h is -7.74%.

In the case of `Cn1ccnc1C(=O)N1CCC(Cn2cc(-c3ccsc3)nn2)CC1`, the cytotoxicity at 70.5 h is -8.29%.

In the case of `CCCOC1CCCN(C(=O)c2ccnnc2)C1` (centres undefined), the cytotoxicity at 70.5 h was -2.27%.

As for `CC(C)c1nc(CN(C)C(=O)CCNC(=O)c2ccccc2F)no1`, the cytotoxicity at 70.5 h is 19.8%.

For `CC(=O)N1CCN(Cc2ccc(Cl)c(F)c2)CC(O)C1` (centres undefined), the cytotoxicity at 70.5 h was determined as 17.8%.

On to `O=S1(=O)COCCN1CCOc1ccc(F)cc1`, for which the cytotoxicity at 70.5 h is -5.2%.

As to `Cc1noc(C)c1-c1n[nH]c2c1CN(S(=O)(=O)c1cccs1)CC2`, the cytotoxicity at 70.5 h was 0.699%.

For the compound `c1ccc(CCn2cc(-c3nc(CN4CCOCC4)no3)nn2)cc1`, the cytotoxicity at 70.5 h was -6.91%.

As for `O=C(Cn1nc2ccccc2n1)N1CCCC(O)(CO)C1` (centres undefined), the cytotoxicity at 70.5 h turned out to be 6.64%.

Turning to `CN(C)C(=O)c1ccc(C(C(=O)O)N(C)Cc2ccccc2Cl)cc1` (centres undefined), the cytotoxicity at 70.5 h is -8.81%.

For `Nc1cc(C(=O)NC2CCCN(CCCc3ccccc3)C2)ccn1` (centres undefined), the cytotoxicity at 70.5 h is 12.3%.

With `Cc1nccc(-c2ccccc2)c1C(=O)N1CC[C@](C)(O)[C@H](C)C1`, the cytotoxicity at 70.5 h is 13.7%.

For the compound `O=C(c1ccc(CNC2CCSC2)cc1)N1CCCC1` (centres undefined), the cytotoxicity at 70.5 h was -0.303%.

For `CCN(C)C[C@@H]1CN(S(=O)(=O)c2cccc(Cl)c2)C[C@@H]1CO`, the cytotoxicity at 70.5 h was 2.35%.

Regarding `CCCc1nc(C(=O)N(C)Cc2cc(CC)no2)cs1`, the cytotoxicity at 70.5 h was 0.552%.

For the compound `O=C(c1ncc[nH]1)N1CCC(n2cc(-c3cccc(Cl)c3)nn2)CC1`, the cytotoxicity at 70.5 h was determined as 8.61%.

Take `CNC(=O)[C@@H]1C[C@@H](N)CN1C1CCN(c2ccccc2F)CC1`: the cytotoxicity at 70.5 h was -7.57%.

`Cc1n[nH]c(C)c1-c1cc(-c2ccc[nH]2)nc(N)c1C#N`: the cytotoxicity at 70.5 h is -10.2%.

`CCC(Nc1nc(C(C)C)nc2c1cnn2C)c1ccncc1` (centres undefined): the cytotoxicity at 70.5 h was -7.7%.

For `Cc1nn(C)c2nc(NCCOCCO)sc12`, the cytotoxicity at 70.5 h was -4.46%.

Take `Cc1cccc(N2CCC3(CCCN3Cc3cnn(C)c3C)CC2)n1`: the cytotoxicity at 70.5 h came to 2.08%.

For the compound `CC(=O)c1c(C)nn(CC(=O)N2CCCC2c2ccc(C(N)=O)s2)c1C` (centres undefined), the cytotoxicity at 70.5 h was -2.76%.

As for `O=C(O)c1cn(CC2CCCN(c3ccc4ccccc4n3)C2)nn1` (centres undefined), the cytotoxicity at 70.5 h is -10.4%.

With `COC(=O)CCC(=O)N1CCc2[nH]nc(-c3ccc4c(c3)OCO4)c2C1`, the cytotoxicity at 70.5 h was -3.99%.

In the case of `CN(C)C(C(=O)N1CCCC1)c1ccccc1F` (centres undefined), the cytotoxicity at 70.5 h was -1.96%.

`CCn1c(CN(C)C)nnc1C1CCN(Cc2ccccc2)CC1`: the cytotoxicity at 70.5 h is -10.3%.

For `O=C1[C@H]2CC[C@H](CN(S(=O)(=O)c3ccccc3)C2)N1Cc1cscn1`, the cytotoxicity at 70.5 h was determined as 8.27%.

As to `CC(C)Oc1cc(N2CCC(N3CCC(O)CC3)CC2)nc(N)n1`, the cytotoxicity at 70.5 h was -7.04%.

Regarding `Cc1ccc(C(NC(=O)CC2CCN(C(C)C)CC2)C(=O)O)cc1` (centres undefined), the cytotoxicity at 70.5 h is -3.16%.

With `Cc1nn(C)cc1CNC(=O)c1cn(CCC2CCCCN2)nn1` (centres undefined), the cytotoxicity at 70.5 h was -8.92%.

`Cc1ncsc1CCC(=O)N1CCCC[C@H](N(C)C)C1`: the cytotoxicity at 70.5 h came out at 16.9%.

`NC(=O)c1cccc(CC2CCN(C(=O)CO)C2)c1` (centres undefined): the cytotoxicity at 70.5 h is -3%.

Consider `CCCNC(=O)N1CCC(Oc2cc(C)ccc2F)(C(=O)O)CC1`, for which the cytotoxicity at 70.5 h was 10.3%.

For `CCCN1CCCn2nc(CNC(=O)CCc3scnc3C)cc2C1`, the cytotoxicity at 70.5 h is -1.73%.

`O=C1CCC2(CCN(Cc3cc(F)ccc3Cl)CC2)CN1C1CCCC1`: the cytotoxicity at 70.5 h turned out to be 3.22%.

On to `COCCN1CCN(C(=O)c2cc(C(C)C)on2)[C@H]2CS(=O)(=O)C[C@H]21`, for which the cytotoxicity at 70.5 h amounted to 2.11%.

For `CCNC(=O)[C@@H]1C[C@@H](NC(=O)Cc2ccncc2)CN1Cc1ccsc1`, the cytotoxicity at 70.5 h is -1.57%.

`Cc1cc(C[C@@H]2COC[C@@H]2NC(=O)CN2CCCC2)on1`: the cytotoxicity at 70.5 h is -0.566%.

With `C[C@@H]1CN(C2(C(=O)N3CCCCCC3)Cc3ccccc3C2)C[C@H](C)O1`, the cytotoxicity at 70.5 h was -7.47%.

Take `O=C(NC1CC(=O)N(Cc2cccc(F)c2)C1)c1ccncc1` (centres undefined): the cytotoxicity at 70.5 h was -8.7%.

For the compound `COCCN1CCC(CN(CC2CCCO2)C(=O)CCNC(C)=O)CC1` (centres undefined), the cytotoxicity at 70.5 h is -3.63%.

Regarding `NC(=O)NCCC(=O)NCc1cccnc1N1CCc2ccccc2C1`, the cytotoxicity at 70.5 h was -11.6%.

`COc1cc(N2CCCC(c3nccn3Cc3cscn3)C2)nc(N)n1` (centres undefined): the cytotoxicity at 70.5 h is -8.38%.

In the case of `CC(C)CCN1CCNC(=O)C1CC(=O)N1CCc2sccc2C1` (centres undefined), the cytotoxicity at 70.5 h is -7.67%.

On to `CCCn1c(C)c(CC(=O)N(C)CCOC)c2c1CC(C)(C)CC2=O`, for which the cytotoxicity at 70.5 h is -7.09%.

Regarding `COCCN(C)CCN1CC2(CCN(C(=O)C3CCOC3)CC2)OC1=O` (centres undefined), the cytotoxicity at 70.5 h was 17.4%.

In the case of `CC(C)Nc1ncc(CN2C[C@@H](CN3CCC(O)CC3)[C@@H](CO)C2)cn1`, the cytotoxicity at 70.5 h is -3.95%.

For `COc1ccc(-c2nc(CN3CCOCS3(=O)=O)c(C)o2)cc1`, the cytotoxicity at 70.5 h is -0.0234%.

In the case of `Cc1nnc(SCC(=O)N2CCC3(CC2)c2ccccc2CC3O)o1` (centres undefined), the cytotoxicity at 70.5 h stood at 20.7%.

Regarding `CC(C)c1noc(CN2CCC3(CCCO3)CCC2=O)n1` (centres undefined), the cytotoxicity at 70.5 h is -0.624%.

For `CCSCCNC(=O)C(c1cccc(F)c1)N(C)C` (centres undefined), the cytotoxicity at 70.5 h is -6.8%.

As to `CCC(=O)N1CCc2[nH]cnc2C12CCN(C(=O)c1snnc1C)CC2`, the cytotoxicity at 70.5 h was -10.6%.

In the case of `Oc1cc(CCC2CCCCN2)cc(-c2ccncc2)c1` (centres undefined), the cytotoxicity at 70.5 h came out at 17.4%.

As to `CC(C)n1ccnc1C1CCCN(c2ccccn2)C1` (centres undefined), the cytotoxicity at 70.5 h is -11.1%.

Regarding `CN(Cc1ncc[nH]1)S(=O)(=O)c1cccc(C(=O)N2CCOCC2)c1`, the cytotoxicity at 70.5 h was -2.7%.

As to `COc1cccc(C(=O)N2CCCC(C(=O)CCc3ccccc3)C2)c1` (centres undefined), the cytotoxicity at 70.5 h was -0.206%.

For `N#Cc1cccnc1N1CCC2(CCCN(C3CCOCC3)C2=O)C1` (centres undefined), the cytotoxicity at 70.5 h is -3.03%.

Consider `CCNC(=O)c1ccc(N2CCCC(c3nccn3C(C)C)C2)nc1` (centres undefined), for which the cytotoxicity at 70.5 h was -10.3%.

For `c1ncn(CC2CCCCN2Cc2cn3ccsc3n2)n1` (centres undefined), the cytotoxicity at 70.5 h is 5.43%.

In the case of `CC(C)(C)c1cc(C(=O)NCCN2CCCS2(=O)=O)[nH]n1`, the cytotoxicity at 70.5 h was -14.3%.

Consider `Cc1cccc(C(CNC(=O)NCc2cc[nH]n2)N2CCOCC2)c1` (centres undefined), for which the cytotoxicity at 70.5 h is -14.8%.

For the compound `CC(C)Cc1cc(C(=O)NCCN2CCCS2(=O)=O)[nH]n1`, the cytotoxicity at 70.5 h is -10.6%.

On to `NC(=O)C(NCc1nn(-c2ccccc2)c2c1CCC2)c1ccccc1` (centres undefined), for which the cytotoxicity at 70.5 h was -10.6%.

For the compound `Cc1cc(CN2CCCCC2Cn2cncn2)no1` (centres undefined), the cytotoxicity at 70.5 h is -12.8%.

Regarding `CC(C)c1nc2c(n1C)CCN(Cc1cccc(C(N)=O)c1)C2`, the cytotoxicity at 70.5 h is -13.9%.

Turning to `CCn1ccnc1CN1CCN(CC(O)c2ccco2)CC1` (centres undefined), the cytotoxicity at 70.5 h was -5.46%.

As to `Cc1cc(CN2CCCC2Cn2cccn2)no1` (centres undefined), the cytotoxicity at 70.5 h was -10.2%.

As to `Cc1cnn(CC2CCCCN2Cc2c(C)noc2C)c1` (centres undefined), the cytotoxicity at 70.5 h is -14.5%.

`CCn1nc2c(cc1=O)CN(Cc1nc(-c3ccco3)no1)CC2`: the cytotoxicity at 70.5 h was -10.1%.

As to `O=C(NCc1nn(-c2ccccc2)c2c1CCC2)NCC1COCCO1` (centres undefined), the cytotoxicity at 70.5 h is -9.01%.

As for `CC(C)C(CNC(=O)NCc1cc[nH]n1)N1CCOCC1` (centres undefined), the cytotoxicity at 70.5 h is -5.25%.

For the compound `CC(O)CN1CCC(CNCc2ccc(OC(F)(F)F)cc2)CC1` (centres undefined), the cytotoxicity at 70.5 h amounted to 5.04%.

Consider `COc1cccc(CNCC2CCN(CC(C)O)CC2)c1OC` (centres undefined), for which the cytotoxicity at 70.5 h was -5.57%.

As for `COc1cc(C)nc(N2CCN(C(=O)COC3CCCC3)CC2)n1`, the cytotoxicity at 70.5 h was -4.07%.

Consider `Cc1ccsc1CNC(=O)N1CCC(Cc2cnn(C)c2)C1` (centres undefined), for which the cytotoxicity at 70.5 h is -3.88%.

On to `CCc1nccn1C1CCCN(C(=O)COCC(F)(F)F)C1` (centres undefined), for which the cytotoxicity at 70.5 h was -1.33%.

Turning to `Cc1cnn(CC2CCCCN2Cc2cnc(C)s2)c1` (centres undefined), the cytotoxicity at 70.5 h is -12.5%.

For `CCCn1nc2c(cc1=O)CN(Cc1nc(-c3ccco3)no1)CC2`, the cytotoxicity at 70.5 h is -1.15%.

As for `CC(Oc1ccccc1)C(=O)N1CCCN(Cc2cscn2)CC1` (centres undefined), the cytotoxicity at 70.5 h came out at 6.19%.

Turning to `CSCC(=O)N1CCCN(Cc2cscn2)CC1`, the cytotoxicity at 70.5 h was -2.64%.

Turning to `COCCN1CCCC1Cn1nc(C)cc1C` (centres undefined), the cytotoxicity at 70.5 h stood at 8.46%.

Turning to `CCc1ccc(C(=O)NCc2ccnc(N3CCN(C)CC3)c2)o1`, the cytotoxicity at 70.5 h was -7.44%.

For `Cc1cc(C(=O)NCc2ccnc(N3CCN(C)CC3)c2)sc1C`, the cytotoxicity at 70.5 h is 20.5%.

Turning to `Cc1ccsc1C(=O)NCc1ccnc(N2CCN(C)CC2)c1`, the cytotoxicity at 70.5 h was -8.63%.

On to `Cc1cc(C(=O)NCc2ccnc(N3CCN(C)CC3)c2)no1`, for which the cytotoxicity at 70.5 h is -0.337%.

`CN1CCN(c2cc(CNC(=O)c3cccnc3O)ccn2)CC1`: the cytotoxicity at 70.5 h was -1.85%.

As to `Cc1nc2cc(=O)[nH]n2c(C)c1CC(=O)NCCCc1ccccc1`, the cytotoxicity at 70.5 h was -4.06%.

As to `NC(=O)Cn1cc(NC(=O)N2CCCC(O)C2)cn1` (centres undefined), the cytotoxicity at 70.5 h is -4.87%.

With `CCCc1noc(C(C)N2CCN(Cc3nc(C)c(C)o3)CC2)n1` (centres undefined), the cytotoxicity at 70.5 h was 0.969%.

For `Cc1cc(CNC(=O)Cc2c(C)nc3cc(=O)[nH]n3c2C)no1`, the cytotoxicity at 70.5 h was -4.77%.

Turning to `Cc1cnn(CC2CN(CC(=O)Nc3cc(C)on3)CCO2)c1` (centres undefined), the cytotoxicity at 70.5 h is -5.06%.

As to `CCc1ccc(C(=O)N2CCCN(Cc3nccn3CC)CC2)s1`, the cytotoxicity at 70.5 h was determined as 14%.

With `CCC(O)CN1CCN(C(=O)Cc2ccccc2Cl)CC1` (centres undefined), the cytotoxicity at 70.5 h is -0.929%.

In the case of `CCn1ccnc1CN1CCCN(C(=O)c2cc[nH]n2)CC1`, the cytotoxicity at 70.5 h worked out at 0.0306%.

With `CC(O)CN1CCN(C(=O)Cc2ccccc2Cl)CC1` (centres undefined), the cytotoxicity at 70.5 h is -5.1%.
